Experimental data reported in publication PMC12101129, “An optimized CYP3A4-activatable fluorogenic sensor for in situ functional imaging and multi-dimensional inhibitor assessment” (Chemical Science, 2025).
Read-outs that look alike come from different tables or passages of the source.

Legend:
human P-glycoprotein = molecular target: T1, human P-glycoprotein (Homo sapiens, UniProt P08183); test: P-gp transporter assay in MDR1-MDCK cells with or without verapamil; assay type: in vitro ADME; details: for intracellular level in the presence of verapamil: MDR1-MDCK cells, with versus without verapamil
T1 construct: expressed in transfected cells; host or cells: MDR1-MDCK
Protocol: 1.10. P-gp transporter assay
To test whether NCN is pumped extracellularly by P-gp, MDR1-MDCK cells (a transfected cell line overexpressing human P-glycoprotein) were seeded in 96-well plates supplemented with DMEM media with 10% FBS. Then, verapamil (a potent P-gp inhibitor, 100 μL) was added to 96-well plates and cultured for 15 min. After that, the cells were treated with NCN/Rhodamine 123 (100 μL) for 2 h. The cells were collected and washed with PBS, and lysed by 200 µL ice-cold acetonitrile. Next, the cell supernatant was collected by centrifugation at 20,000 g, 4 °C for 30 min. The content of NCN in the cells was determined. […]

[1] = Phase II metabolic stability in HLMs; assay type: in vitro ADME; details: human, liver microsomes, read-out: phase II metabolic stability t1/2
Hep3B cells [2] = test: CCK-8 cytotoxicity assay; assay type: cell-based
[3] = In vivo inhibitory effect of ketoconazole on NCN pharmacokinetics; details: rats; for AUC(0-inf) / Cmax / half-life: rat, plasma, po, 20 mg/kg, NCN 20 mg/kg i.g.
Protocol: Twelve rats were randomly divided into two groups (CMC-Na + NCN group, […]
ketoconazole + NCN group).
50 mg/kg, respectively. Firstly, blank blood samples were collected. Then, ketoconazole or CMC-Na (control group) was administered orally. After 30 min, NCN was administered orally and blood samples were collected at the following time points […]
5-fold volume of acetonitrile.
1.21. Statistical analysis
All data are expressed as the mean ± standard deviation. The Km, Vmax, and IC50 values were determined via non-linear regression analysis using GraphPad Prism software. All statistical analyses were carried out using GraphPad Prism software (GraphPad Prism 8.0), and Origin (2025).

[4] = Effect of pH on fluorescence response of HNCN; assay type: physicochemical
NCM460 cells = test: Cell-membrane permeability assay in NCM460 cells; assay type: in vitro ADME
Hep3B cells [5] = test: Cell-membrane permeability assay in Hep3B cells; assay type: in vitro ADME; details: for Cell-membrane penetration: 20 μM, 1 h
Protocol: 1.9. Cell-membrane permeability assay
Hep3B cells were cultured with the DMEM media supplemented with 10% fetal bovine serum (FBS) in a humidified culture chamber at 37 °C with 95% air and 5%
CO2. The cells were trypsinized and resuspended with the DMEM basal medium at a […]
200 μL cell suspension was incubated with NCN (20 μM) at 37 °C for 1 h. Then, the cells were centrifuged (1000 rpm, 3 min), resuspended in DMEM media, and centrifuged again. Next, the cells were lysed with ice-cold methanol (200 μL) and centrifuged (20000 g, 30 min, 4 °C). The content of NCN in the supernatant was determined. […]

CYP3A4 [6] = molecular target: T2, CYP3A4 (Homo sapiens, UniProt P08684); parameters: endogenous in cells; host or cells: Hep3B; details: cited from earlier work; for Km: CYP3A4, previously reported probe
[7] = test system: human liver microsomes (HLMs); test: Oxidative metabolism of candidate substrates in HLMs (fluorescent product formation); details: for fluorescence activation following oxidative metabolism: 30 min
[8] = molecular target: T3, human liver microsomes (HLMs) (Homo sapiens, UniProt P08684); test: Enzyme kinetic analysis of NCN 4-hydroxylation in HLMs; assay type: biochemical; details: Vmax/Km, enzyme source HLMs
T3 construct: tissue Bioreclamation IVT lot No. X008067; host or cells: pooled human liver microsomes from 50 donors
Protocol: (§1) 1.6. P450 reaction phenotyping and chemical inhibition assays
(§2) P450 reaction phenotyping analysis of NCN was determined using a panel of human recombinant cytochrome P450 enzymes, while the inhibitory effects of CYP specific inhibitors on NCN 4-hydroxylation in HLMs were assessed. The final concentration of each human recombinant CYP enzyme in the incubation system was 5 nM. Briefly, each sample was co-incubated with NCN at 37 °C for 30 min, the formation rate of HNCN was determined to assess the metabolic specificity of NCN.
(§3) Gaussian program conducted a GMMX conformational analysis using a DFT/B3LYP/6-31G(d) pre-optimized 3D geometry. The resulting GMMX conformers were optimized at B3LYP/6-31G(d) level. Moreover, all conformers were real minima, as no imaginary vibrational frequencies were found. The energy ranking was performed to find the minimum energy conformer. The minima conformer was optimized at B3LYP /6-311G(d,p) level. The molecular orbital energy levels and electrostatic potential (ESP) were calculated at the DFT/B3LYP/6-311G(d,p) level.
(§4) Frontier orbital and ESP were depicted by Multiwfn (Lu and Chen 2011) and VMD […]
(§5) 1.8. Enzyme kinetic analysis
(§6) The kinetic parameters of NCN 4-hydroxylation in HLMs were determined by performing a set of hydroxylation kinetic assays. Kinetic parameters (K m and Vmax) for NCN 4-hydroxylation were fitted by the following equation (a): […]

[9] = test system: human recombinant cytochrome P450 enzymes; test: P450 reaction phenotyping assay; assay type: biochemical; details: NCN, panel of human P450 enzymes including CYP3A5
Protocol: as §1, §2, §3, §4, §5, §6

[10] = Bio-safety (tolerability) assessment of NCN in healthy mice; assay type: in vivo
Protocol: 1.15. Bio-safety assessment of NCN in healthy mice
Sixteen C57BL/6J mice (8 males and 8 females, 6 weeks) were randomly assigned into two groups (4 males and 4 females). All mice were subjected to adaptive feeding for 7 d before the experiment. NCN was dissolved in 0.5% CMC-Na, and mice were orally administered NCN (100 mg/kg)/0.5% CMC-Na continuously for 14 d. The mice were weighed every day, and their status was observed. After 14 d, blood and tissues from all mice were obtained for bio-safety assessment. Serum ALT, AST, TP, UREA, CREA, TG, Na+, and K+ levels were tested by using a fully automated serum biochemistry analysis (Thermo, USA). Mice organs were weighed and the organ index was calculated, and hematoxylin and eosin (H&E) stains were provided by Shanghai Ruibaohe Biotechnology Co., Ltd. […]

[11] = Oral bioavailability of NCN (pharmacokinetics); assay type: in vivo, SD rats; details: Sprague-Dawley, rat, plasma, rats; for AUC(0-inf) / Cmax / Tmax / half-life: n = 5
Protocol: precipitate the protein. After centrifugation again, the supernatant was determined to
quantify the levels of HNCN.
1.17. Oral bioavailability of NCN
intravenous injection NCN group).
h, and 24 h, respectively.
8 h, 12 h, and 24 h, respectively. […]

[12] = test system: human liver microsomes (HLMs)
CYP3A4 [13] = molecular target: T2, CYP3A4; test: Fluorescence response of NCN to CYP3A4 (NCN 4-hydroxylation); assay type: biochemical; parameters: purchased Cypex
[14] = molecular target: T4, NCN 4-hydroxylation in HLMs (Homo sapiens, UniProt P08684); test: Chemical inhibition assays of NCN 4-hydroxylation in HLMs; assay type: biochemical
T4 construct: tissue Bioreclamation IVT lot No. X008067; host or cells: pooled human liver microsomes from 50 donors

[15] = KCZ 50 mg kg^−1 versus control, after oral NCN

T2 sequence (P08684 whole entry): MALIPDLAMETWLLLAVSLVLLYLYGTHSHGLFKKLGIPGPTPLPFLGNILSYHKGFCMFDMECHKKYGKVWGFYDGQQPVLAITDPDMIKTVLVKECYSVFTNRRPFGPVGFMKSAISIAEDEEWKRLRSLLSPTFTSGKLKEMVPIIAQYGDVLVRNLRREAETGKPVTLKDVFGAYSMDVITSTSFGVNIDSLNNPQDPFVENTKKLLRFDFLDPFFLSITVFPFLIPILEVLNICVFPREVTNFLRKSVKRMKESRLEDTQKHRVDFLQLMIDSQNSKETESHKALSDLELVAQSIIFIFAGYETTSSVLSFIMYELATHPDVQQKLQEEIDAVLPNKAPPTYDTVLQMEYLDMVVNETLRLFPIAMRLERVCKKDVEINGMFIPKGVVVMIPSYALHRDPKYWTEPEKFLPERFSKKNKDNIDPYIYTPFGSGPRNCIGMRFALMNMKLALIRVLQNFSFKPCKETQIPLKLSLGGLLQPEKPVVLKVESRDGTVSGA
T1 sequence (P08183 whole entry): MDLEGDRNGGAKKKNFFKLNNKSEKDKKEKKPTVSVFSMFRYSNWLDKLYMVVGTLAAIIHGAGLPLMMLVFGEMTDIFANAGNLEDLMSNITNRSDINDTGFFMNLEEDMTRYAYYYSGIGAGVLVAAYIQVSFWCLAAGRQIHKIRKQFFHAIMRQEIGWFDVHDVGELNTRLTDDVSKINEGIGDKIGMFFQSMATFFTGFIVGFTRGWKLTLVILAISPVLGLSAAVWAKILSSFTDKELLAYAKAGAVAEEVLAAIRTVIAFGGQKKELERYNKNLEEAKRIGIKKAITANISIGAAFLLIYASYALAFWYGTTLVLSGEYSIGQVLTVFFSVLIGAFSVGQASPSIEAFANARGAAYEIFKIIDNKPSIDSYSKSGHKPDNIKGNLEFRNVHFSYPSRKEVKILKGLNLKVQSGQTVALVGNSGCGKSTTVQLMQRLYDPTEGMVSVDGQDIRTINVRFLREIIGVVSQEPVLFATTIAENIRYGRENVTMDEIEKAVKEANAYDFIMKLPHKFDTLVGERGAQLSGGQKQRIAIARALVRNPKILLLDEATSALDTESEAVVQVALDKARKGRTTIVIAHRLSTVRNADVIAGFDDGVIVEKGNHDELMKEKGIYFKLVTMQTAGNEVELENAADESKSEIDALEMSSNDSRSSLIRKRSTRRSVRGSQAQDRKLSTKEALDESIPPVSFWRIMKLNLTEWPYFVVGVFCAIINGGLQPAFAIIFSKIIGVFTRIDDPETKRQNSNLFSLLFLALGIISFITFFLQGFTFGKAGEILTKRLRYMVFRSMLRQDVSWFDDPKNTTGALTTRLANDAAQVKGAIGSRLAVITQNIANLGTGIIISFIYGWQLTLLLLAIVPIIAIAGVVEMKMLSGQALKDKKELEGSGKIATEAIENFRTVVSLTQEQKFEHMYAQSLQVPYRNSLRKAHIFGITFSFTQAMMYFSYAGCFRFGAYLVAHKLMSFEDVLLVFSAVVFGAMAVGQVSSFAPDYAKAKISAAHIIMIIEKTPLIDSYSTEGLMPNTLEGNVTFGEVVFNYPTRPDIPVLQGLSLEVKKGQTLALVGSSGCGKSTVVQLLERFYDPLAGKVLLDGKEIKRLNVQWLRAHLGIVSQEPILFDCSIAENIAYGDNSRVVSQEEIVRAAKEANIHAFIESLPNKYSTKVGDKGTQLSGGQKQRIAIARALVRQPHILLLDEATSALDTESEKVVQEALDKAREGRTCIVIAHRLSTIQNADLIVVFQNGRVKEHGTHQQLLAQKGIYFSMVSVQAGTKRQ
T4 sequence (P08684 whole entry): as the sequence (P08684 whole entry) above
T3 sequence (P08684 whole entry): as above

## O=C1c2cccc3c(O)ccc(c23)C(=O)N1CC1CC1 [HNCN, N-cyclopropylmethyl-4-hydroxy-1,8-naphthalimide]
Human P-glycoprotein
  P-gp substrate: non-substrates of P-gp
  intracellular level in the presence of verapamil: unchanged
[1]
  half-life: 1.36 h
Hep3B cells [2]
  cytotoxicity: minimal cytotoxicity
[3]; control group (CMC-Na)
  AUC(0-inf): 961 ng·h/mL
  Cmax: 101 ng/mL
  half-life: 1.77 h
[3]; with KCZ 50 mg kg^−1 i.g.
  AUC(0-inf): 245 ng·h/mL
  Cmax: 32 ng/mL
  half-life: 2.88 h
[3]; [15]
  decrease of Cmax by KCZ: 3.16 fold
  reduction of AUC(0-inf) by KCZ: 3.92 fold
[4]
  pH range of stable fluorescence signals: 7.0–11.0

## O=C1c2cccc3cccc(c23)C(=O)N1Cc1ccc(F)cc1 [Probe F8, N-(4-fluorobenzyl)-1,8-naphthalimide, reference compound]
NCM460 cells
  Cell-membrane penetration: 2.09%
Hep3B cells [5]
  Cell-membrane penetration: 4.82%
Human P-glycoprotein
  P-gp substrate: Yes
  intracellular level in the presence of verapamil: significantly enhanced
CYP3A4 [6]; ref He et al. 2023
  Km: 0.36 µM
CYP3A4 [6]; previously reported probe, ref He et al. 2023
  Detection limit: 0.1 nM

## O=C1c2cccc3cccc(c23)C(=O)N1Cc1ccco1 [Probe 15]
[7]
  metabolites generated: multiple metabolites
  fluorescence activation following oxidative metabolism: noticeable fluorescence activation

## O=C1c2cccc3cccc(c23)C(=O)N1CC1CC1 [Probe 5, N-cyclopropylmethyl-1,8-naphthalimide]
[8]
  microsomal CLint: 255 µL/min/mg
[9]
  isozyme specificity: only CYP3A4 could effectively trigger discernible fluorescence enhancement
NCM460 cells
  Cell-membrane penetration: 23.76%
  enhancement in cell-membrane permeability compared to NEN: 23.9 fold
Hep3B cells [5]
  enhancement in cell-membrane permeability compared to NEN: 13.7 fold
  Cell-membrane penetration: 31.45%
Human P-glycoprotein
  intracellular level in the presence of verapamil: unchanged
Human P-glycoprotein; listed as NCN
  P-gp substrate: No and non-substrates of P-gp
Hep3B cells [2]
  cytotoxicity: minimal cytotoxicity
[10]; oral 100 mg kg^−1, 14 consecutive days
  toxicity, mortality, morbidity signs: no toxicity, mortality, or morbidity signs were observed
[10]; oral 100 mg kg^−1, 14 days
  histopathological examination of vital organs: no evidence of lesions or inflammation
  serum liver, kidney function and other indicators: within normal ranges
  visceral organ appearance: normal in color, size, and shape
[11]; iv, i.v. 2 mg/kg
  AUC(0-inf): 858 ± 120 ng·h/mL
  Cmax: 1860 ± 477 ng/mL
  Tmax: 0.083 h
  half-life: 2.59 ± 0.33 h
[11]; po, 20 mg/kg i.g. versus 2 mg/kg i.v.
  bioavailability: 12.9%
[11]; po, i.g. 20 mg/kg
  AUC(0-inf): 1110 ± 208 ng·h/mL
  Cmax: 275 ± 65 ng/mL
  Tmax: 2 ± 0.71 h
  half-life: 1.79 ± 0.41 h
[3]; control group (CMC-Na)
  AUC(0-inf): 1520 ng·h/mL
  Cmax: 207 ng/mL
  half-life: 1.47 h
[3]; with KCZ 50 mg kg^−1 i.g.
  AUC(0-inf): 5840 ng·h/mL
  Cmax: 674 ng/mL
  half-life: 2.3 h
[3]; KCZ 50 mg kg^−1 versus control
  increase of AUC0-inf by KCZ: 3.85 fold
  increase of Cmax by KCZ: 3.26 fold
[12]
  metabolites generated: a single oxidative metabolite
CYP3A4 [13]; CYP3A4 concentration, NCN as substrate
  Detection limit: 0.03 nM
CYP3A4 [13]; NCN 10 μM with CYP3A4 2 nM and NADPH, 30 min, around 555 nm
  fluorescence enhancement: 125 fold
[7]
  fluorescence activation following oxidative metabolism: noticeable fluorescence activation

## Nn1nnc2ccccc21 [ABT, 1-aminobenzotriazole]
[14]
  inhibition of NCN 4-hydroxylation: completely blocking

## CC(C)c1nc(CN(C)C(=O)N[C@H](C(=O)N[C@@H](Cc2ccccc2)C[C@H](O)[C@H](Cc2ccccc2)NC(=O)OCc2cncs2)C(C)C)cs1 [ritonavir, reference compound]
Hep3B cells [2]
  cytotoxicity: minimal cytotoxicity

## O=C1c2cccc3cccc(c23)C(=O)N1CC1CCC1 [Probe 6]
[12]
  metabolites generated: multiple metabolites
[7]
  fluorescence activation following oxidative metabolism: noticeable fluorescence activation

## O=c1ccc2ccc(O)cc2o1 [7-hydroxycoumarin, reference compound]
[1]
  half-life: 0.287 h

## Cc1ccc(-c2c(-c3nn(C)c4ncnc(N5CC[C@H](N6CCCCC6)C5)c34)cnn2C)cc1 [CYP3cide]
[14]
  inhibition of NCN 4-hydroxylation: completely blocking

## CCN1C(=O)c2cccc3cccc(c23)C1=O [NEN, N-ethyl-1,8-naphthalimide, reference compound]
NCM460 cells
  Cell-membrane penetration: 0.99%
Hep3B cells [5]
  Cell-membrane penetration: 2.29%
Human P-glycoprotein
  P-gp substrate: Yes
  intracellular level in the presence of verapamil: significantly enhanced
CYP3A4 [6]; ref Ning et al. 2019
  Km: 59.8 µM
CYP3A4 [6]; previously reported probe, ref Ning et al. 2019
  Vmax: 2.18 nmol/min/nmol
